Drawing on US9187472B2 (AbbVie Inc., priority 2012, dated 2015), this text covers IC50 for 25 molecules.

SMILES strings stand for the structures. pIC50: −log10 of the molar value.

The target of experiment [1] is NAMPT (human, recombinant, C-terminally His-tagged) (Homo sapiens, UniProt P43490). Briefly: Time-Resolved Fluorescence Resonance Energy Transfer (TR-FRET) Binding Assay of NAMPT. Particulars: without substrates; 6.8 nM NAMPT, 200 nM probe, 3 hours equilibration. The essentials:
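Competitive binding against an Oregon Green 488 tracer (200 nM), 6.8 nM His-tagged enzyme, 1 nM Tb antibody, 2% DMSO, 3 h at RT. IC50 derived from TR-FRET ratios.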

For the next experiment, the target named is NAMPT (Homo sapiens, UniProt P43490). Description: TR-FRET Binding Assay of NAMPT with PRPP. Particulars: with 200 μM PRPP and 2.5 mM ATP; 2 nM NAMPT, 2 nM probe, 16 hours equilibration. The essentials: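 Read-out is TR-FRET after a 16 h equilibration allowing possible compound modification by the enzyme. Final mix: 2 nM NAMPT, 2 nM probe, 1 nM Tb-anti-His antibody, 200 μM PRPP, 2.5 mM ATP, 2% DMSO.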
Sequence of NAMPT (P43490 whole entry): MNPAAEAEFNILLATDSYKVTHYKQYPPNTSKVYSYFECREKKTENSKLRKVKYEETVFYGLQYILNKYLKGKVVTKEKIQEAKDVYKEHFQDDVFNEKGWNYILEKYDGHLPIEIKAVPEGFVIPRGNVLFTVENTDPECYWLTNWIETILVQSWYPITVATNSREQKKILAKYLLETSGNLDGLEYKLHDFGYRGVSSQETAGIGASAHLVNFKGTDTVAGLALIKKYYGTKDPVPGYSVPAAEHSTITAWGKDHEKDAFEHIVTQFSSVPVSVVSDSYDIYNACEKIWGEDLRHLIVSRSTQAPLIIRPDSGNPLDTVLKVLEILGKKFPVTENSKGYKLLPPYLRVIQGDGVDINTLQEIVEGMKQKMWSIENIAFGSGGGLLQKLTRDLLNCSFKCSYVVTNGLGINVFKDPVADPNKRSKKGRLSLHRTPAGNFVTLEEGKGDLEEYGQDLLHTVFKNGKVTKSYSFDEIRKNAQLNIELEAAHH
For orientation: In TR-FRET formats the signal depends on donor and acceptor labels being close together.

The next experiment deals with PC3 cells. Briefly: NAMPT Cell Proliferation Assay. Format: cell-based. Particulars: Homo sapiens, PC-3, 120 h, 5 days incubation, cell viability by Cell Titer Glo. The essentials:
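Following overnight attachment in RPMI with 10% heat-inactivated FBS, PC3 cells at 500 per well receive compounds spanning 10 μM down to 1×10^−5 μM. Growth is assessed by luminescent viability read after 5 days.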
For orientation: ATP-based viability assays read luminescence as a measure of living cells.

Sequence of NAMPT (human, recombinant, C-terminally His-tagged) (P43490 whole entry): as above

Consider `O=C(NCc1ccn2ccnc2c1)c1ccc(C2CN(C(=O)C3CCCCC3)C2)cc1` [Example 660, 4-[1-(cyclohexylcarbonyl)azetidin-3-yl]-N-(imidazo[1,2-a]pyridin-7-ylmethyl)benzamide], for which the pIC50 (as a rule, −log10 of the IC50, conventionally taken in molar units) is 6.55 in experiment [1], 9.16 on NAMPT and 7.15 with PC3 cells.

In the case of `O=C(NCc1ccn2ccnc2c1)c1ccc(C2CCN(C(=O)c3ccc(OC(F)(F)F)cc3)CC2)cc1` [Example 704, N-(imidazo[1,2-a]pyridin-7-ylmethyl)-4-{1-[4-(trifluoromethoxy)benzoyl]piperidin-4-yl}benzamide], the pIC50 is 6.30 in experiment [1], 9.11 on NAMPT and 7.04 in the experiment with PC3 cells.

Take `O=C(NCc1ccn2ccnc2c1)Nc1ccc(O[C@@H]2CCN(C(=O)c3ccccc3F)C2)cc1` [Example 689, 1-(4-{[(3R)-1-(2-fluorobenzoyl)pyrrolidin-3-yl]oxy}phenyl)-3-(imidazo[1,2-a]pyridin-7-ylmethyl)urea]: the pIC50 in experiment [1] is 7.80; on NAMPT, 8.88; in the experiment with PC3 cells, 8.14.

`O=C(NCc1ccn2ccnc2c1)c1cnc(N2CC(COCc3ccccc3)OC2=O)s1` (stereo not drawn) [Example 218, 2-{5-[(benzyloxy)methyl]-2-oxo-1,3-oxazolidin-3-yl}-N-(imidazo[1,2-a]pyridin-7-ylmethyl)-1,3-thiazole-5-carboxamide]: the pIC50 in experiment [1] is 6.91; on NAMPT it was 9.77; in the experiment with PC3 cells it was 7.15.

For `O=C(NCc1ccn2ccnc2c1)c1ccc(C2CCN(C(=O)c3ccc(Cl)cc3)C2)s1` (stereo not drawn) [Example 770, 5-[1-(4-chlorobenzoyl)pyrrolidin-3-yl]-N-(imidazo[1,2-a]pyridin-7-ylmethyl)thiophene-2-carboxamide], the pIC50 in experiment [1] is 7.41; at NAMPT, 9.13; with PC3 cells it was 8.22.

Consider `O=C(NCc1ccn2ccnc2c1)c1ccc(C2(O)CCOCC2)s1` [Example 399, 5-(4-hydroxytetrahydro-2H-pyran-4-yl)-N-(imidazo[1,2-a]pyridin-7-ylmethyl)thiophene-2-carboxamide], for which the negative-log IC50 (pIC50) was 5.02 in experiment [1], 8.81 on NAMPT and 5.11 with PC3 cells.

`O=C(NCc1ccn2ccnc2c1)c1cnc(N(C[C@H]2CCCO2)C(=O)CCc2cnoc2)s1` [Example 195, N-(imidazo[1,2-a]pyridin-7-ylmethyl)-2-{[3-(1,2-oxazol-4-yl)propanoyl][(2R)-tetrahydrofuran-2-ylmethyl]amino}-1,3-thiazole-5-carboxamide]: the pIC50 in experiment [1] was 7.61; at NAMPT, 9.60; in the experiment with PC3 cells, 9.02.

Take `O=C(NCc1ccn2ccnc2c1)c1ccc(C2CCN(C(=O)c3ccccc3F)CC2)cc1` [Example 513, 4-[1-(2-fluorobenzoyl)piperidin-4-yl]-N-(imidazo[1,2-a]pyridin-7-ylmethyl)benzamide]: the pIC50 in experiment [1] is 7.62; on NAMPT, 9.73; with PC3 cells, 8.93.

On to `CC(C)S(=O)(=O)N1CCC(c2ccc(C(=O)NCc3ccn4ccnc4c3)cc2)C1` (stereo not drawn) [Example 672, N-(imidazo[1,2-a]pyridin-7-ylmethyl)-4-[1-(propan-2-ylsulfonyl)pyrrolidin-3-yl]benzamide], for which the pIC50 was 6.50 in experiment [1], 9.30 at NAMPT and 7.10 in the experiment with PC3 cells.

Regarding `O=C(NCc1ccc2nccn2c1)c1cnc(N(CC2CCCO2)C(=O)CCc2cc(Cl)no2)s1` (stereo not drawn) [Example 126, 2-{[3-(3-chloro-1,2-oxazol-5-yl)propanoyl](tetrahydrofuran-2-ylmethyl)amino}-N-(imidazo[1,2-a]pyridin-6-ylmethyl)-1,3-thiazole-5-carboxamide], the pIC50 is 6.99 in experiment [1], 9.02 at NAMPT and 8.40 with PC3 cells.

Regarding `CC(=O)N1CC(Oc2ccc(NC(=O)NCc3ccn4ccnc4c3)cc2)C1` [Example 424, 1-{4-[(1-acetylazetidin-3-yl)oxy]phenyl}-3-(imidazo[1,2-a]pyridin-7-ylmethyl)urea], the figures for the negative-log IC50 (pIC50) (in experiment [1]; on NAMPT; in the experiment with PC3 cells) were 6.01, 9.31 and 6.28, respectively.

Take `O=C(Nc1ccc(C(=O)NCCN2CCOCC2)cc1)Nc1ccc2nccn2c1` [Example 5, 4-[(imidazo[1,2-a]pyridin-6-ylcarbamoyl)amino]-N-[2-(morpholin-4-yl)ethyl]benzamide]: the pIC50 in experiment [1] is 5.60; on NAMPT, 9.16; in the experiment on PC3 cells, 6.13.

Turning to `O=C(NCc1ccn2ccnc2c1)c1ccc(C2CCN(C(=O)c3cscn3)C2)cc1` (stereo not drawn) [Example 588, N-(imidazo[1,2-a]pyridin-7-ylmethyl)-4-[1-(1,3-thiazol-4-ylcarbonyl)pyrrolidin-3-yl]benzamide], the pIC50 in experiment [1] is 6.16; at NAMPT it was 9.21; with PC3 cells, 6.74.

With `CC(C)(C)OC(=O)N1CCC(Oc2ccc(C(=O)NCc3ccc4nccn4c3)cc2)CC1` [Example 114, tert-butyl 4-{4-[(imidazo[1,2-a]pyridin-6-ylmethyl)carbamoyl]phenoxy}piperidine-1-carboxylate], the pIC50 is 6.09 in experiment [1], 8.95 at NAMPT and 6.85 with PC3 cells.

For `O=C(NCc1ccn2ccnc2c1)c1ccc(C2CCN(C(=O)c3cccnc3)C2)cc1` (stereo not drawn) [Example 609, N-(imidazo[1,2-a]pyridin-7-ylmethyl)-4-[1-(pyridin-3-ylcarbonyl)pyrrolidin-3-yl]benzamide], the negative logarithm of the IC50 (pIC50) in experiment [1] was 6.22; at NAMPT it was 9.21; in the experiment with PC3 cells it was 6.85.

With `O=C(NCc1ccn2ccnc2c1)c1ccc(C2CCN(C(=O)c3cccc(F)c3)C2)s1` (stereo not drawn) [Example 762, 5-[1-(3-fluorobenzoyl)pyrrolidin-3-yl]-N-(imidazo[1,2-a]pyridin-7-ylmethyl)thiophene-2-carboxamide], the results for the pIC50 (in experiment [1]; on NAMPT; in the experiment on PC3 cells) were 7.52, 9.30 and 8.95, respectively.

As for `O=C(NC1(c2ccc(C(=O)NCc3ccn4ccnc4c3)s2)CCC1)c1ccccc1` [Example 471, 5-[1-(benzoylamino)cyclobutyl]-N-(imidazo[1,2-a]pyridin-7-ylmethyl)thiophene-2-carboxamide], the pIC50 was 5.46 in experiment [1], 9.33 on NAMPT and 5.19 in the experiment with PC3 cells.

As to `O=C(NCc1ccn2ccnc2c1)c1cnc(N2CCN(C(=O)c3ccccc3)CC2)s1` [Example 355, 2-(4-benzoylpiperazin-1-yl)-N-(imidazo[1,2-a]pyridin-7-ylmethyl)-1,3-thiazole-5-carboxamide], the pIC50 in experiment [1] is 6.08; on NAMPT it was 9.77; in the experiment with PC3 cells, 5.71.

Consider `O=C(NCc1ccn2ccnc2c1)c1ccc(C2CCN(C(=O)c3ccccc3Cl)CC2)cc1` [Example 699, 4-[1-(2-chlorobenzoyl)piperidin-4-yl]-N-(imidazo[1,2-a]pyridin-7-ylmethyl)benzamide], for which the negative logarithm of the IC50 (pIC50) in experiment [1] is 7.39; on NAMPT it was 9.14; in the experiment on PC3 cells it was 8.28.

For the molecule `CC(C)(O)C(=O)N1CC(Oc2ccc(NC(=O)NCc3ccn4ccnc4c3)cc2)C1` [Example 430, 1-(4-{[1-(2-hydroxy-2-methylpropanoyl)azetidin-3-yl]oxy}phenyl)-3-(imidazo[1,2-a]pyridin-7-ylmethyl)urea], the results for the pIC50 (in experiment [1]; at NAMPT; in the experiment with PC3 cells) were 6.53, 9.58 and 7.05, respectively.

In the case of `CC(C)Cn1cc(-c2sc(C(=O)NCc3ccn4ccnc4c3)cc2Cl)cn1` [Example 578, 4-chloro-N-(imidazo[1,2-a]pyridin-7-ylmethyl)-5-[1-(2-methylpropyl)-1H-pyrazol-4-yl]thiophene-2-carboxamide], the negative logarithm of the IC50 (pIC50) in experiment [1] was 6.17; at NAMPT, 9.11; with PC3 cells, 5.34.

`O=C(NCc1ccn2ccnc2c1)Nc1ccc(O[C@@H]2CCN(C(=O)[C@@H]3CCCO3)C2)cc1` [Example 336, 1-(imidazo[1,2-a]pyridin-7-ylmethyl)-3-[4-({(3R)-1-[(2S)-tetrahydrofuran-2-ylcarbonyl]pyrrolidin-3-yl}oxy)phenyl]urea]: the pIC50 was 6.48 in experiment [1], 9.58 at NAMPT and 6.86 with PC3 cells.

On to `CC1(Cn2cc(-c3ccc(C(=O)NCc4ccn5ccnc5c4)s3)cn2)COC1` [Example 254, N-(imidazo[1,2-a]pyridin-7-ylmethyl)-5-{1-[(3-methyloxetan-3-yl)methyl]-1H-pyrazol-4-yl}thiophene-2-carboxamide], for which the pIC50 in experiment [1] is 7.50; on NAMPT, 9.51; with PC3 cells, 9.03.

Regarding `O=C(NCc1ccn2ccnc2c1)Nc1ccc(C2CCN(C(=O)CN3CCOCC3)CC2)cc1` [Example 224, 1-(imidazo[1,2-a]pyridin-7-ylmethyl)-3-{4-[1-(morpholin-4-ylacetyl)piperidin-4-yl]phenyl}urea], the negative-log IC50 (pIC50) was 6.63 in experiment [1], 9.26 on NAMPT and 7.64 in the experiment on PC3 cells.

For `CC(C)OC[C@H]1CN(c2ncc(C(=O)NCc3ccn4ccnc4c3)s2)C(=O)O1` [Example 256, N-(imidazo[1,2-a]pyridin-7-ylmethyl)-2-{(5R)-2-oxo-5-[(propan-2-yloxy)methyl]-1,3-oxazolidin-3-yl}-1,3-thiazole-5-carboxamide], the pIC50 in experiment [1] was 6.90; on NAMPT, 9.58; with PC3 cells, 8.01.
